Experimental data from US11180474B2 (BRISTOL-MYERS SQUIBB COMPANY, priority 2016, dated 2021).

Legend:
human TLR8 = molecular target: T1, human TLR8 (Homo sapiens, UniProt Q9NR97); assay: TLR8 inhibition reporter assay (HEK-Blue cells, SEAP reporter, R848 stimulation); assay type: cell-based; details: HEK-Blue cells overexpressing human TLR8, R848 15.9 μM
T1 construct: host or cells: HEK-Blue cells
T1 sequence (Q9NR97 27-1041): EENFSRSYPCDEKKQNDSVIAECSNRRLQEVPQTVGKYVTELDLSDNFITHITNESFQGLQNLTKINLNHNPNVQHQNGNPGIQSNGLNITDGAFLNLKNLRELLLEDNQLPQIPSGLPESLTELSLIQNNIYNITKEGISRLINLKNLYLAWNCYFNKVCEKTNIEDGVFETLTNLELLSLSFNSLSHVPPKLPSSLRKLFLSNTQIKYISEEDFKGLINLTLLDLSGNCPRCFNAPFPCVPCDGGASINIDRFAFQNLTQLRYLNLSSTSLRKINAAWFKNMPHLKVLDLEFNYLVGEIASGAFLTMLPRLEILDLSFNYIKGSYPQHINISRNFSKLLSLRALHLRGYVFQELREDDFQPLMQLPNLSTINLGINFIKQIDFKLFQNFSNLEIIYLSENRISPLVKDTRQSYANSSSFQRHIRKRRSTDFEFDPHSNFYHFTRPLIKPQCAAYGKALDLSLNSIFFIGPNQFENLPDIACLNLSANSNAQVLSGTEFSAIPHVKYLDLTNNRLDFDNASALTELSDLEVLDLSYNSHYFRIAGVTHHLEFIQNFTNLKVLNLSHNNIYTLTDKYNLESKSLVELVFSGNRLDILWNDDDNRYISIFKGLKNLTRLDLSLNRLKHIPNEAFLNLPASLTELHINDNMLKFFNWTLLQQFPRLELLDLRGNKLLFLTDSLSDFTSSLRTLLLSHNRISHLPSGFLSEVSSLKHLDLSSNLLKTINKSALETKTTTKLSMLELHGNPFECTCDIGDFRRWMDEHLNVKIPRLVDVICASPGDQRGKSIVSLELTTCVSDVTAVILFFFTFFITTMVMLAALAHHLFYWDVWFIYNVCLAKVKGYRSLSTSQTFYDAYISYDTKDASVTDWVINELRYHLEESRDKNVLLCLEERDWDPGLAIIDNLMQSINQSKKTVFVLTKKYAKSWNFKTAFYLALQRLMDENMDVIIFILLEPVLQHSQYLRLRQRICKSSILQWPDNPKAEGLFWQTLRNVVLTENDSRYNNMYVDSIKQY
In short: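 HEK-Blue reporter cells (15,000/well TLR7, 20,000 TLR8) exposed to compound over 0.05 nM–50 μM, agonist-stimulated (R848 for TLR8, gardiquimod for TLR7), 22 h at 37 °C, 5% CO2. SEAP read with HEK-Blue Detection; % inhibition relative to agonist-plus-DMSO and known-inhibitor controls.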

human TLR9 = molecular target: T2, human TLR9 (Homo sapiens, UniProt Q9NR96); assay: TLR9 inhibition reporter assay (HEK-Blue cells, SEAP reporter, ODN2006 stimulation); assay type: cell-based; details: HEK-Blue cells overexpressing human TLR9, ODN2006 5 nM
T2 construct: host or cells: HEK-Blue cells
T2 sequence (Q9NR96 26-1032): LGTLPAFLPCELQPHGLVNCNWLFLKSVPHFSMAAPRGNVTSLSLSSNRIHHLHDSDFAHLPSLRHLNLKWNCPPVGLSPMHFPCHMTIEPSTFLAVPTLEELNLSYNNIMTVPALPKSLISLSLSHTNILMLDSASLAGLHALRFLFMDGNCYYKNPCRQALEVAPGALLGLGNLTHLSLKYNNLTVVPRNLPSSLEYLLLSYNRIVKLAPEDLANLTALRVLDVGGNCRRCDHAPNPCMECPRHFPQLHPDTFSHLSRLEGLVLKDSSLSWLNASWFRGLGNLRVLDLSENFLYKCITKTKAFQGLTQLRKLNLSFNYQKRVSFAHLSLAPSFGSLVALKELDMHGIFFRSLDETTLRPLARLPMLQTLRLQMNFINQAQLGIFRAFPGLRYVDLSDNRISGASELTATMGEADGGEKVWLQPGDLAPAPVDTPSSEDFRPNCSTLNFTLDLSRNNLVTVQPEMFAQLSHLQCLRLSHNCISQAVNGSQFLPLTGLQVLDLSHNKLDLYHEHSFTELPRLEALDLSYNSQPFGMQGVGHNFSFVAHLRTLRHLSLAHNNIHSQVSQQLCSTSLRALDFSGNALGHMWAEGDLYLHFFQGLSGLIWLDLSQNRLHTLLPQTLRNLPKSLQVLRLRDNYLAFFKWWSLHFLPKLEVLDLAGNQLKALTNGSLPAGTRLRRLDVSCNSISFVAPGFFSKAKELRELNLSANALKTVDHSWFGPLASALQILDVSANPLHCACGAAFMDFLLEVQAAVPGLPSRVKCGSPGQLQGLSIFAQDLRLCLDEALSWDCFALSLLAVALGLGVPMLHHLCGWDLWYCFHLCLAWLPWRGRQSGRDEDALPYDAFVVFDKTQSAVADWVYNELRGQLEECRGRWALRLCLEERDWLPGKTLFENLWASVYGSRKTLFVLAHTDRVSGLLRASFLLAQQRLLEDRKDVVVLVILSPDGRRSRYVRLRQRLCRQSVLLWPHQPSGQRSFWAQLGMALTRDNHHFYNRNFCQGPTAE
In short: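 Agonists used: gardiquimod 7.5 μM (TLR7), R848 15.9 μM (TLR8), ODN2006 5 nM (TLR9), added after 30 min room-temperature compound pre-treatment (0.05 nM–50 μM) of receptor-overexpressing HEK-Blue cells. SEAP reporter (NF-κB/AP-1 driven) read after 22 h at 37 °C; inhibition scaled between agonist+DMSO and reference-inhibitor wells.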

SMILES	IC50 (human TLR8)	IC50 (human TLR9)
COc1ccc(-c2[nH]c3ccc(C4CCN(CC(=O)NCCN(C)C)CC4)cc3c2CC(F)(F)F)cc1OC [Example 380, 2-(4-(2-(3,4-dimethoxyphenyl)-3-(2,2,2-trifluoroethyl)-1H-indol-5-yl)piperidin-1-yl)-N-(2-(dimethylamino)ethyl)acetamide]	55 nM	745 nM
CNC(=O)CN1CCC(c2ccc3[nH]c(-c4ccc(OC)c(OC)c4)c(CC(F)F)c3c2)CC1 [Example 401, 2-(4-(3-(2,2-difluoroethyl)-2-(3,4-dimethoxyphenyl)-1H-indol-5-yl)piperidin-1-yl)-N-methylacetamide]	128 nM	5290 nM
CCC(CC)NC(=O)CN1CCC(c2ccc3[nH]c(-c4ccc(OC)c(OC)c4)c(CC(F)(F)F)c3c2)CC1 [Example 378, 2-(4-(2-(3,4-dimethoxyphenyl)-3-(2,2,2-trifluoroethyl)-1H-indol-5-yl)piperidin-1-yl)-N-(pentan-3-yl)acetamide]	451 nM	14400 nM
COc1ccc(-c2[nH]c3ccc(C4CCN(C(=O)Cc5nnn[nH]5)CC4)cc3c2CC(F)(F)F)cc1OC [Example 341, 1-(4-(2-(3,4-dimethoxyphenyl)-3-(2,2,2-trifluoroethyl)-1H-indol-5-yl)piperidin-1-yl)-2-(1H-tetrazol-5-yl)ethan-1-one]	9390 nM	≥ 50000 nM
CCNC(=O)N1CCC(c2ccc3[nH]c(-c4ccc(OC)c(OC)c4)c(CC(F)(F)F)c3c2)CC1 [Example 356, 4-(2-(3,4-dimethoxyphenyl)-3-(2,2,2-trifluoroethyl)-1H-indol-5-yl)-N-ethylpiperidine-1-carboxamide]	626 nM	≥ 50000 nM
COc1ccc(-c2[nH]c3ccc(C4CCN(C(=O)CC(F)(F)F)CC4)cc3c2CC(F)(F)F)cc1OC [Example 339, 1-(4-(2-(3,4-dimethoxyphenyl)-3-(2,2,2-trifluoroethyl)-1H-indol-5-yl)piperidin-1-yl)-3,3,3-trifluoropropan-1-one]	822 nM	≥ 50000 nM
COc1ccc(-c2[nH]c3ccc(C4CCN(CC(=O)N(C)CCN(C)C)CC4)cc3c2CC(F)(F)F)cc1OC [Example 367, 2-(4-(2-(3,4-dimethoxyphenyl)-3-(2,2,2-trifluoroethyl)-1H-indol-5-yl)piperidin-1-yl)-N-(2-(dimethylamino)ethyl)-N-methylacetamide]	36 nM	441 nM
COc1ccc(-c2[nH]c3ccc(C4CCN(CC(=O)N5CCN(c6ncccn6)CC5)CC4)cc3c2CC(F)(F)F)cc1OC [Example 368, 2-(4-(2-(3,4-dimethoxyphenyl)-3-(2,2,2-trifluoroethyl)-1H-indol-5-yl)piperidin-1-yl)-1-(4-(pyrimidin-2-yl)piperazin-1-yl)ethan-1-one]	74 nM	1330 nM
